According to patent US20230143612A1 (Arbutus Biopharma Corporation, priority 2020, published 2023):

What follows are compounds tested against PD-L1 His protein / PD-1 Fc protein (Homo sapiens, UniProt Q9NZQ7) (assay: HTRF Assay (PD-1/PD-L1 interaction)). Settings: PD-L1 His 6 nM, PD-1 Fc 6 nM.
Format: binding
Summary of the method: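 Compounds tested from 20 μM down to 0.001 μM (3-fold) against 6 nM PD-L1 His and 6 nM PD-1 Fc, 15 min room temperature incubation. Detection after 1 h at room temperature with Tb cryptate anti-6HIS and XL665 anti-human IgG reagents (mixture at 0.35 nM and 6.7 nM), HTRF signal.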

Chain of PD-L1 His protein / PD-1 Fc protein (Q9NZQ7 19-238 limits assumed): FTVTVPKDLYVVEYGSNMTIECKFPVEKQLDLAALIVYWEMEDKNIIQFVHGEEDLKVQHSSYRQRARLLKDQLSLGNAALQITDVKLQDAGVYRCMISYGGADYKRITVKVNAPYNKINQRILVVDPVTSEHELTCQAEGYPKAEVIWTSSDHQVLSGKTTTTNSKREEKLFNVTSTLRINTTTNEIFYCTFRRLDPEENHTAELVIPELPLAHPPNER

Point of comparison: COc1c(CNC[C@@H]2CCC(=O)N2)cc(Cl)c2nc(-c3cccc(-c4cccc(-c5ccn6c(=O)c(CNC[C@@H]7CCC(=O)N7)cnc6c5)c4Cl)c3Cl)ccc12 [Example 203, 8-[2-chloro-3-[2-Chloro-3-[8-chloro-5-methoxy-6-[[[(2S)-5-oxopyrrolidin-2-yl]methylamino]methyl]-2-quinolyl]phenyl]phenyl]-3-[[[(2S)-5-oxopyrrolidin-2-yl]methylamino]methyl] pyrido[1,2-a]pyrimidin-4-one], IC50 150 nM. Against it:
- COc1nc(-c2cccc(-c3cccc(-c4ccn5c(=O)c(CN6CC(C(=O)O)C6)cnc5c4)c3Cl)c2Cl)ccc1CNC[C@@H]1CCC(=O)N1 [Example 98, (S)-1-((8-(2,2′-Dichloro-3′-(6-methoxy-5-((((5-oxopyrrolidin-2-yl)methyl)amino)methyl)pyridin-2-yl)-[1,1′-biphenyl]-3-yl)-4-oxo-4H-pyrido[1,2-a]pyrimidin-3-yl)methyl)azetidine-3-carboxylic acid] — 500-fold lower, 0.3 nM
- COc1nc(-c2cccc(-c3cccc(-c4ccc5c(CNC[C@@H]6CCC(=O)N6)cn(C)c5c4)c3Cl)c2Cl)ccc1CNC[C@@H]1CCC(=O)N1 [Example 452, (5S)-5-[[[6-[2-Chloro-3-[2-chloro-3-[1-methyl-3-[[[(2S)-5-oxopyrrolidin-2-yl]methylamino]methyl]indol-6-yl]phenyl]phenyl]-2-methoxy-3-pyridyl]methylamino]methyl]pyrrolidin-2-one] — 2.2-fold lower, 68 nM
- COc1nc(-c2cccc(-c3cccc(-c4ccn5c(=O)c(CNC[C@@H]6CCC(=O)N6)c(OC)nc5c4)c3Cl)c2Cl)ccc1CNC[C@@H]1CCC(=O)N1 [Example 201, 8-(2,2′-Dichloro-3′-(6-methoxy-5-(((((S)-5-oxopyrrolidin-2-yl)methyl)amino)methyl)pyridin-2-yl)-[1,1′-biphenyl]-3-yl)-2-methoxy-3-(((((S)-5-oxopyrrolidin-2-yl)methyl)amino)methyl)-4H-pyrido[1,2-a]pyrimidin-4-one] — 1.5-fold lower, 100 nM
- COc1nc(-c2cccc(-c3cccc(-c4cc5c(=O)n(C)c(CNCCC6CCC(=O)N6)nn5c4)c3Cl)c2Cl)ccc1CNC[C@@H]1CCC(=O)N1 (stereo partly drawn) [Example 451, 6-[2-Chloro-3-[2-chloro-3-[6-methoxy-5-[[[(2S)-5-oxopyrrolidin-2-yl]methylamino]methyl]-2-pyridyl]phenyl]phenyl]-3-methyl-2-[[2-(5-oxopyrrolidin-2-yl)ethylamino]methyl]pyrrolo [2,1-f][1,2,4]triazin-4-one] — within 1.5-fold, 200 nM
- COc1nc(-c2cccc(-c3cccc(-c4ccn5c(=O)c(C)c(CN[C@H]6C[C@](C)(O)C6)nc5c4)c3Cl)c2Cl)ccc1CNC[C@@H]1CCC(=O)N1 [Example 373, 8-(2,2′-Dichloro-3′-(6-methoxy-5-(((((S)-5-oxopyrrolidin-2-yl)methyl)amino)methyl)pyridin-2-yl)-[1,1′-biphenyl]-3-yl)-2-((((1r,3r)-3-hydroxy-3-methylcyclobutyl)amino)methyl)-3-methyl-4H-pyrido[1,2-a]pyrimidin-4-one] — 4.5-fold lower, 33 nM
- COc1nc(-c2cccc(-c3cccc(-c4ccn5c(=O)c(CNC6(C(=O)O)CC6)cnc5c4)c3Cl)c2Cl)ccc1CNC[C@@H]1CCC(=O)N1 [Example 120, (S)-1-(((8-(2,2′-Dichloro-3′-(6-methoxy-5-((((5-oxopyrrolidin-2-yl)methyl)amino)methyl)-pyridin-2-yl)-[1,1′-biphenyl]-3-yl)-4-oxo-4H-pyrido[1,2-a]pyrimidin-3-yl)methyl)amino)-cyclopropane-1-carboxylic acid] — 380-fold lower, 0.4 nM
- COc1nc(-c2cccc(-c3cccc(-c4cc(C)n5c(=O)c(CN[C@H]6C[C@](C)(O)C6)cnc5c4)c3Cl)c2Cl)ccc1CNC[C@@H]1CCC(=O)N1 [Example 211] — 7.1-fold lower, 21 nM
- COC(=O)C(C)(C)CNCc1nn2cc(-c3cccc(-c4cccc(-c5ccc(CNC[C@@H]6CCC(=O)N6)c(OC)n5)c4Cl)c3Cl)cc2c(=O)n1C [Example 495, Methyl 3-[[6-[2-chloro-3-[2-chloro-3-[6-methoxy-5-[[[(2S)-5-oxopyrrolidin-2-yl]methylamino]methyl]-2-pyridyl]phenyl]phenyl]-3-methyl-4-oxo-pyrrolo[2,1-f][1,2,4]triazin-2-yl]methylamino]-2,2-dimethyl-propanoate] — 210-fold lower, 0.7 nM
- COc1nc(-c2cccc(-c3cccc(-c4cc5c(=O)n(C)c(CN6CC7(COC7)C6)nn5c4)c3Cl)c2Cl)ccc1CNC[C@@H]1CCC(=O)N1 [Example 447, 6-[2-Chloro-3-[2-chloro-3-[6-methoxy-5-[[[(2S)-5-oxopyrrolidin-2-yl]methylamino]methyl]-2-pyridyl]phenyl]phenyl]-3-methyl-2-(2-oxa-6-azaspiro[3.3]heptan-6-ylmethyl)pyrrolo[2,1-f][1,2,4]triazin-4-one] — 30-fold lower, 5 nM
- COc1nc(-c2cccc(-c3cccc(-c4ccn5c(=O)c(CN(C)CCN)cnc5c4)c3Cl)c2Cl)ccc1CNC[C@@H]1CCC(=O)N1 [Example 279, (S)-3-(((2-aminoethyl)(methyl)amino)methyl)-8-(2,2′-dichloro-3′-(6-methoxy-5-((((5-oxopyrrolidin-2-yl)methyl)amino)methyl)pyridin-2-yl)-[1,1′-biphenyl]-3-yl)-4H-pyrido[1,2-a]pyrimidin-4-one] — 1500-fold lower, 0.1 nM
- COc1nc(-c2cccc(-c3cccc(-c4cc(F)c5c(c4)CCN(CCNC[C@@H]4CCC(=O)N4)C5=O)c3Cl)c2Cl)ccc1CNC[C@@H]1CCC(=O)N1 [Example 400, 6-(2,2′-Dichloro-3′-(6-methoxy-5-(((((S)-5-oxopyrrolidin-2-yl)methyl)amino)methyl)pyridin-2-yl)-[1,1′-biphenyl]-3-yl)-8-fluoro-2-(2-((((S)-5-oxopyrrolidin-2-yl)methyl)amino)ethyl)-3,4-dihydroisoquinolin-1(2H)-one] — 3.7-fold higher, 550 nM
- Cc1c(-c2ccn3c(=O)c(CNC[C@@H]4CCC(=O)N4)cnc3c2)cccc1-c1cccc(-c2ccc(CNC[C@@H]3CCC(=O)N3)c(F)n2)c1Cl [Example 57, 8-(2′-Chloro-3′-(6-fluoro-5-(((((S)-5-oxopyrrolidin-2-yl)methyl)amino)methyl)pyridin-2-yl)-2-methyl-[1,1′-biphenyl]-3-yl)-3-(((((S)-5-oxopyrrolidin-2-yl)methyl)amino)methyl)-4H-pyrido[1,2-a]pyrimidin-4-one] — 48-fold lower, 3.1 nM
- COc1nc(-c2cccc(-c3cccc(-c4ccc5c(CNCCN6CCCC6=O)cn(C)c5n4)c3Cl)c2Cl)ccc1CNC[C@@H]1CCC(=O)N1 [Example 414, 1-[2-[[6-[2-Chloro-3-[2-chloro-3-[6-methoxy-5-[[[(2S)-5-oxopyrrolidin-2-yl]methylamino]methyl]-2-pyridyl]phenyl]phenyl]-1-methyl-pyrrolo[2,3-b]pyridin-3-yl]methylamino]ethyl]pyrrolidin-2-one] — within 1.5-fold, 170 nM
- COc1nc(-c2cccc(-c3cccc(-c4ncc5c(CNC[C@@H]6CCC(=O)N6)cn(C)c5n4)c3Cl)c2Cl)ccc1CNC[C@@H]1CCC(=O)N1 [Example 401, (S)-5-((((2-(2,2′-Dichloro-3′-(6-methoxy-5-(((((S)-5-oxopyrrolidin-2-yl)methyl)amino)methyl)pyridin-2-yl)-[1,1′-biphenyl]-3-yl)-7-methyl-7H-pyrrolo[2,3-d]pyrimidin-5-yl)methyl)amino)methyl)pyrrolidin-2-one] — 1500-fold lower, 0.1 nM
- COc1nc(-c2cccc(-c3cccc(-c4ccn5c(=O)c(CNCCNC(C)=O)cnc5c4)c3Cl)c2Cl)ccc1CNC[C@@H]1CCC(=O)N1 [Example 81, (S)—N-(2-(((8-(2,2′-Dichloro-3′-(6-methoxy-5-((((5-oxopyrrolidin-2-yl)methyl)amino)methyl)pyridin-2-yl)-[1,1′-biphenyl]-3-yl)-4-oxo-4H-pyrido[1,2-a]pyrimidin-3-yl)methyl)amino)ethyl)acetamide] — 18-fold lower, 8.3 nM
- COc1nc(-c2cccc(-c3cccc(-c4ccn5c(=O)c(CNCCO)cnc5c4)c3Cl)c2Cl)cc(Cl)c1CNC[C@@H]1CCC(=O)N1 [Example 378, (S)-8-(2,2′-Dichloro-3′-(4-chloro-6-methoxy-5-((((5-oxopyrrolidin-2-yl)methyl)amino)methyl)pyridin-2-yl)-[1,1′-biphenyl]-3-yl)-3-(((2-hydroxyethyl)amino)methyl)-4H-pyrido[1,2-a]pyrimidin-4-one] — within 1.5-fold, 110 nM
- CN1CCC(NC[C@@H]2CCC(=O)N2)c2ccc(-c3cccc(-c4cccc(-c5ccc6c(n5)N(C)CCC6NC[C@@H]5CCC(=O)N5)c4Cl)c3Cl)nc21 (stereo partly drawn) [Example 42, (5S,5'S)-5,5′-((((2,2′-Dichloro-[1,1′-biphenyl]-3,3′-diyl)bis(1-methyl-1,2,3,4-tetrahydro-1,8-naphthyridine-7,4-diyl))bis(azanediyl))bis(methylene))bis(pyrrolidin-2-one)] — 65-fold lower, 2.3 nM
- COc1nc(-c2cccc(-c3cccc(-c4ccn5c(=O)c(CNC[C@@H]6CCC(=O)N6)cnc5c4)c3Cl)c2Cl)ccc1CN1CC[C@H](C(=O)O)C1 [Example 118, (S)-1-((6-(2,2′-Dichloro-3′-(4-oxo-3-(((((S)-5-oxopyrrolidin-2-yl)methyl)amino)methyl)-4H-pyrido[1,2-a]pyrimidin-8-yl)-[1,1′-biphenyl]-3-yl)-2-methoxypyridin-3-yl)methyl)pyrrolidine-3-carboxylic acid] — 750-fold lower, 0.2 nM
- COc1nc(-c2cccc(-c3cccc(-c4ccn5c(=O)c(CN(C)CC(=O)O)cnc5c4)c3Cl)c2Cl)ccc1CNC[C@@H]1CCC(=O)N1 [Example 187, (S)—N-((8-(2,2′-Dichloro-3′-(6-methoxy-5-((((5-oxopyrrolidin-2-yl)methyl)amino)methyl)pyridin-2-yl)-[1,1′-biphenyl]-3-yl)-4-oxo-4H-pyrido[1,2-a]pyrimidin-3-yl)methyl)-N-methylglycine] — 1500-fold lower, 0.1 nM
- COc1nc(NCCNC(C)=O)cnc1-c1cccc(-c2cccc(-c3ncc(NCCNC(C)=O)nc3OC)c2Cl)c1Cl [Example 39, N,N′-((((2,2′-Dichloro-[1,1′-biphenyl]-3,3′-diyl)bis(6-methoxypyrazine-5,2-diyl))bis(azanediyl))bis(ethane-2,1-diyl))diacetamide] — 6.7-fold higher, 1000 nM
